Read-outs that look alike come from different tables or passages of the source.
Columns and labels:
[1] = system: IL-6; test: IL-6 secretion assay in human PBMCs (LPS, ELISA); assay type: cell-based; details: read-out: Inhibitory Activity EC50, IL6
Method: (§1) Fetal bovine serum (FBS) was obtained from ThermoFisher (Cat #16000044). • Other reagents: 96 well TC plates were obtained from ThermoFisher (Cat #07-2000-90). LPS was obtained from Sigma (Cat #L3024).
(§2) IL-6 was assessed using a standard ELISA protocol. Cryopreserved PBMCs were thawed in a water bath and transferred to 50 mL polypropylene tubes. The cells were washed two times with 25 mL of RPMI medium supplemented with 5% of heat-inactivated FBS and re-suspended at a density of 4.5^^6 cells/mL. The cells were plated into 96 well TC late (100 uL/well). Serially diluted compound was added to the cells in duplicate wells for each concentration. Control wells received DMSO only (0.3% final). The cells were pre-incubated with compound for 1 hr. After pre-incubation, the cells were stimulated by LPS (100 ng/mL) for 6 hr. Control samples with and without LPS in the absence of compound were assembled in each test plate. IL-6 was detected in media supernatants by using a sandwich anti-IL-6 ELISA kit (BD Biosciences) according to protocol provided by the manufacturer. ELISA readout (optical density at 450 nm) is commensurable with the amount of IL-6 produced by the cells. Assay window was determined in each experiment by comparing average OD450 values in stimulated and un-stimulated samples in the absence of compound. ELISA calibration was performed in each detection plate using serially diluted recombinant human IL-6, to ensure that OD450 values for all test samples were within linear range of detection.%-Inhibition by compound was calculated using following equation.
(§3) where OD450100% is optical density in control samples stimulated with LPS without compound, OD4500% is optical density in unstimulated control samples, and OD450compound is optical density in a sample stimulated with LPS in the presence of compound.
(§4) The calculated %-Inh values were plotted against compound concentration. To determine IC50 values, dose-response curves were fitted by a 4-parameter sigmoid inhibition model using XLFit® software (IDBS).

[2] = molecular target: T1, Recombinant human ALOX15 (Arachidonate 15-Lipoxygenase) (Homo sapiens, UniProt P16050); test: Biochemical LOX-15 assay
T1 construct: full length encompassing amino acids 2-662(end); purchased BPS Biosciences 50220
T1 sequence (P16050 2-662): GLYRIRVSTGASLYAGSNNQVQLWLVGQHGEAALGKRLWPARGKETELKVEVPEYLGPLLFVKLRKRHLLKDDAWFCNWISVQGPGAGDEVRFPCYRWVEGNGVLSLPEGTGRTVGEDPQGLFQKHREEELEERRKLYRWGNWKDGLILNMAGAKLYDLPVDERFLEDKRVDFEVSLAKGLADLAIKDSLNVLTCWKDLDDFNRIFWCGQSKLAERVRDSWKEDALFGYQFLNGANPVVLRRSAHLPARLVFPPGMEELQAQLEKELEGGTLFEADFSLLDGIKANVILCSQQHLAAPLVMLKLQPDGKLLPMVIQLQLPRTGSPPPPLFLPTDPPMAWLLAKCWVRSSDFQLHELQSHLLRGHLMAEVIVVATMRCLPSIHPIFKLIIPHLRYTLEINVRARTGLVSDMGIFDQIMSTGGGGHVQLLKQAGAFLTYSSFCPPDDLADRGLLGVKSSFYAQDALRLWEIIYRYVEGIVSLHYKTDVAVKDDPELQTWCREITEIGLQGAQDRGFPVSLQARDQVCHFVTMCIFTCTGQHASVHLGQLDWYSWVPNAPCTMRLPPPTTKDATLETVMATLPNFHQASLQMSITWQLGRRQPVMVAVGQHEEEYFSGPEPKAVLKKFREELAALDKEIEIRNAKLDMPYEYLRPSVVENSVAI
Method: The LOX-15 assay was performed in assay buffer comprising: 50 mM Tris (pH 7.5), 5 uM DHR, 50 uM AA, and 50 nM recombinant enzyme. Serially diluted compounds were prepared in DMSO in Echo qualified 384 well plates. An assay buffer was then prepared […] supplemented 10 uM DHRA. 10 uL of the supplemented buffer was dispensed into control (no enzyme) wells in the black 384 well assay plate. Next, a 2× enzyme solution was prepared, comprising 100 nM LOX-15 enzyme in the supplemented assay buffer. 10 μL of the 2× enzyme solution was then dispensed into test wells in the black 384 well assay plate. Serially diluted compounds were added to the assay plate by acoustic dispensing (Labcyte 550). Control wells received DMSO only.
Next, the 2× substrate was prepared to comprise 100 uM arachidonic acid in the assay buffer. 10 uL of the 2× substrate was then added to all wells in the assay plate. The plate was incubated for 3 hours.
where RFU100% is fluorescence in control samples without compound, RFU0% is fluorescence in control samples without LOX-15, and RFUcompound fluorescence in a sample with compound.
The calculated %-Inh values were plotted against compound concentration. To determine EC50 values, dose-response curves were fitted by a 4-parameter sigmoid inhibition model using XLFit® software (IDBS).

[3] = system: TNFa; test: TNFa secretion assay in human PBMCs (LPS, ELISA); assay type: cell-based; details: read-out: Inhibitory Activity EC50, TNF
Method: as §1
as §2, with “TNF-alpha was” for “IL-6 was”, “plate. TNFa” for “plate. IL-6”, “sandwich anti-TNFa” for “sandwich anti-IL-6”, “of TNFa” for “of IL-6”, “human TNFa,” for “human IL-6,”, “following equation:” for “following equation.”
as §3, §4

[4] = system: IL-1β; test: IL-1β inhibitory activity; assay type: cell-based
[5] = PBMC, human PBMCs, LPS 100 ng/mL 6 hr
[6] = recombinant enzyme, read-out: Inhibitory Activity EC50, 15-Lox
[7] = human PBMCs, LPS 100 ng/mL 6 hr

Row | Compound | EC50 [1, 5] [µM] | EC50 [2] [µM] | EC50 [3, 5] [µM] | EC50 [4] [µM] | EC50 ([1]; Homo sapiens, PBMC, 6 h) [µM] | EC50 [2, 6] [µM] | EC50 ([3]; Homo sapiens, PBMC, 6 h) [µM] | EC50 [1, 7] [µM] | stronger inhibition of 15-Lox compared to Cox-2 [2] | EC50 [3, 7] [µM]
1 | CCCCCc1cc(OC(C)=O)c(C/C=C(\C)CCC=C(C)C)c(O)c1OC(C)=O [Formula XLIII] | > 10 | 8.4 | 8.68 | 0.89 |  |  |  |  |  | 
2 | CCCCCc1cc(OC)c(C/C=C(\C)CCC=C(C)C)c(O)c1OC [Formula XLII] | > 10 | 18 | > 10 | > 10 |  |  |  |  |  | 
3 | CCCCCC1=C(NC)C(=O)C(C/C=C(\C)CCC=C(C)C)=C(O)C1=O [Formula XLI] | > 10 | 28.8 | > 10 | 0.12 |  |  |  |  |  | 
4 | CCCCCc1cc(O)c(C/C=C(\C)CCC=C(C)C)c(O)c1O [Formula XXXIX] |  |  |  | 0.89 | > 10 | 2.82 | 6.2 |  |  | 
5 | Cannabigerol Quinone [Formula VI] |  |  |  | 5.3 |  | 0.98 |  | 17.9 | over 60 fold | 18.5

From patent publication US20250073184A1, “CANNABIGEROQUINONE COMPOUNDS, COMPOSITIONS INCLUDING SUCH COMPOUNDS, AND USES OF SUCH COMPOUNDS AND COMPOSITIONS” (Juva Life, Inc., priority 2021, published 2025)
